US11071730B2, “Substituted 6-azabenzimidazole compounds” (Gilead Sciences, Inc., priority 2018, dated 2021)

Biological target: human HPK1 (MAP4K1) (Homo sapiens (Human), UniProt Q92918)
Assay: HPK1 IC50 Assay (TR-FRET biochemical kinase assay, STK S1 peptide substrate)
Settings: recombinant human HPK1 kinase domain 0.15 nM, 10 μM ATP, 1 μM STK S1 peptide; geometric mean
How it was run: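 Pre-activated recombinant kinase domain (insect cells; 0.15 nM) pre-incubated with compounds for 15 min, then 10 μM ATP and 1 μM STK S1 peptide added for 3 h at 25 °C in BES pH 7.0. Phosphorylation read by HTRF (665/620 nm). IC50 from four-parameter fits normalized to staurosporine/DMSO controls, geometric mean of repeats.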

human HPK1 (MAP4K1), sequence (Q92918 17-274): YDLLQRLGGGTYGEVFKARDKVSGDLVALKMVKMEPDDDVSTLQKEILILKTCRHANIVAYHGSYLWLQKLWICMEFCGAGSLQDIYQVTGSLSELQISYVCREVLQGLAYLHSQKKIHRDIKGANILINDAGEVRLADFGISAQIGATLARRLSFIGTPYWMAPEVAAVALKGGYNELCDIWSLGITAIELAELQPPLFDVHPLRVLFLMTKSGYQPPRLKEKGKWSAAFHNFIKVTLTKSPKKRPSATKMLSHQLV

| SMILES | IC50 [nM] |
| --- | --- |
| CCn1cnc2cc(-c3ccc4c(c3)N([C@H]3C[C@@H](N5CCCCC5)C3)C(=O)C43CCN(C4COC4)CC3)nc(Nc3ccncc3F)c21 [Example 175] | 0.8 |
| CO[C@H](C)C(=O)N1CCC2(CC1)C(=O)N([C@H]1C[C@@H](N3CCCCC3)C1)c1cc(-c3cc4ncn(C(C)C)c4c(Nc4ccncc4F)n3)ccc12 [Example 153] | 0.3 |
| Cc1cc(Nc2nc(-c3ccc4c(c3)N([C@H]3C[C@@H](N5CCCCC5)C3)C(=O)C43CCN(C(=O)C(C)(C)CO)CC3)cc3ncn(C(C)C)c23)c(F)cn1 [Example 132] | 0.8 |
| CC(C)n1cnc2cc(-c3ccc4c(c3)N([C@H]3C[C@@H](N5C[C@H]6CC[C@H]6C5)C3)C(=O)C43CCN(C(=O)[C@@H]4CCCO4)CC3)nc(Nc3ccncc3F)c21 [Example 111] | 0.08 |
| CC(=O)N1CCC2(CC1)C(=O)N([C@H]1C[C@@H](N3CCCCC3)C1)c1cc(-c3cc4ncn(C(C)C)c4c(Nc4cc(CO)ncc4F)n3)ccc12 [Example 98] | 1 |
| CC(=O)N1CCC2(CC1)C(=O)N([C@H]1C[C@@H](N3CCCCCC3)C1)c1cc(-c3cc4ncn(C(C)C)c4c(Nc4ccncc4F)n3)ccc12 [Example 185] | 0.1 |
| CC(C)n1cnc2cc(-c3ccc4c(c3)N([C@H]3C[C@@H](N5CC(C)(C)C5)C3)C(=O)C4(C)C)nc(Nc3cc(CO)ncc3F)c21 [Example 100] | 3.1 |
| CCn1cnc2cc(-c3ccc4c(c3)N([C@H]3C[C@@H](N5CCCCC5)C3)C(=O)C43CCN(C(=O)C45CC(F)(C4)C5)CC3)nc(Nc3ccncc3F)c21 [Example 151] | 0.3 |

Same assay, conditions: recombinant human HPK1 kinase domain 0.15 nM, 10 μM ATP, 1 μM STK S1 peptide; geometric mean of multiple experiments

| SMILES | IC50 [nM] |
| --- | --- |
| CC(C)n1cnc2cc(-c3ccc4c(c3)N([C@H]3C[C@@H](N5CCC(C)(C)C5)C3)C(=O)C43CCN(C(=O)C4(C)CCO4)CC3)nc(Nc3ccncc3F)c21 (stereo partly drawn) [Example 12] | 0.1 |
| CC(=O)N1CCC2(CC1)C(=O)N([C@H]1C[C@@H](N3CCCCC3)C1)c1cc(-c3cc4ncn(C(C)C)c4c(Nc4cc(C)ncc4F)n3)ccc12 [Example 31] | 1.1 |
| CC(C)n1cnc2cc(-c3ccc4c(c3)N([C@H]3C[C@@H](N5CCC(C)(C)C5)C3)C(=O)C43CCN(C(=O)[C@@H]4CCOC4)CC3)nc(Nc3ccncc3F)c21 [Example 17] | 0.3 |
| CC(C)n1cnc2cc(-c3ccc4c(c3)N([C@H]3C[C@@H](N5CCC(C)(C)C5)C3)C(=O)C43CCN(C(=O)[C@H]4CCOC4)CC3)nc(Nc3ccncc3F)c21 [Example 16] | 0.3 |
| CC(C)n1cnc2cc(-c3ccc4c(c3)N([C@H]3C[C@@H](N5CC6CCC(C6)C5)C3)C(=O)C4(C)C)nc(Nc3ccncc3F)c21 [Example 62] | 0.05 |
| CC(C)CN[C@H]1C[C@@H](N2C(=O)C(C)(C)c3ccc(-c4cc5ncn(C(C)C)c5c(Nc5ccncc5F)n4)cc32)C1 [Example 84] | 1.7 |
| CC(C)n1cnc2cc(-c3ccc4c(c3)N([C@H]3C[C@@H](N5CCC(C)(C)C5)C3)C(=O)C43CCN(C(=O)[C@@H]4CC[C@H](C)O4)CC3)nc(Nc3ccncc3F)c21 [Example 20B, 1-((1s,3R)-3-(3,3-dimethylpyrrolidin-1-yl)cyclobutyl)-6-(4-((3-fluoropyridin-4-yl)amino)-3-isopropyl-3H-imidazo[4,5-c]pyridin-6-yl)-1′-((2S,5 S)-5-methyltetrahydrofuran-2-carbonyl)spiro[indoline-3,4′-piperidin]-2-one] | 0.05 |
| CC(C)n1cnc2cc(-c3ccc4c(c3)N([C@H]3C[C@@H](N5CCCCC5)C3)C(=O)C43CCN(C4COC4)CC3)nc(Nc3cc(F)ncc3F)c21 [Example 92] | 1.9 |
| [2H]C1([2H])N([C@H]2C[C@@H](N3C(=O)C(C)(C)c4ccc(-c5cc6ncn(C(C)C)c6c(Nc6ccncc6F)n5)cc43)C2)C([2H])([2H])C([2H])([2H])C([2H])([2H])C1([2H])[2H] [Example 63] | 0.3 |
| CC(=O)N1CCC2(CC1)C(=O)N([C@H]1C[C@@H](N3CCC[C@@H](C)C3)C1)c1cc(-c3cc4ncn(C(C)C)c4c(Nc4ccncc4F)n3)ccc12 [Example 32] | 0.6 |
